According to patent US20140094424A1, “MICROBICIDAL COMPOSITIONS AND METHODS OF PRODUCTION USE THEREOF” (priority 2011, published 2014):

Experiments:
Pseudomonas putida (K) = assay: MBC (minimum bactericidal concentration) test in Wash NEXT reagent; format: cell-based
[1] = tested on: Pseudomonas aeruginosa (L); assay: as above; format: cell-based
[2] = tested on: creatinine biosensor (creatinine amidohydrolase, creatinine amidinohydrolase and sarcosine oxidase); assay: Effect on enzymatic activity of a creatinine biosensor (rate of O2% decrease); format: biochemical; details: 210 μM gentamicin, FIG. 1
Procedure: In FIG. 1, the effects of various concentrations of gentamicin on the enzymatic activity of a creatinine biosensor (comprising the three enzymes creatinine amidohydrolase, creatinine amidinohydrolase and sarcosine oxidase) were determined. In FIG. 2, the effects of various concentrations of propionate on the enzymatic activity of a creatinine biosensor (comprising three enzymes) were determined.
In both instances, a decreasing rate of O2% is an indicator of enzyme activity; the faster the rate of O2% decrease, the higher enzymatic activity is.

gentamicin
1: MBC test growth score ([1]; 40% preservative, 72 hour)
did not inactivate enzymatic activity: effect on enzymatic activity of the three enzymes in the creatinine biosensor [2]
−: MBC test growth score (Pseudomonas putida (K); 10% preservative, 8 hour) | MBC test growth score (Pseudomonas putida (K); 10% preservative, 24 hour) | MBC test growth score (Pseudomonas putida (K); 10% preservative, 48 hour) | MBC test growth score (Pseudomonas putida (K); 10% preservative, 72 hour) | MBC test growth score (Pseudomonas putida (K); 20% preservative, 8 hour) | MBC test growth score (Pseudomonas putida (K); 20% preservative, 24 hour) | MBC test growth score (Pseudomonas putida (K); 20% preservative, 48 hour) | MBC test growth score (Pseudomonas putida (K); 20% preservative, 72 hour) | MBC test growth score (Pseudomonas putida (K); 30% preservative, 8 hour) | MBC test growth score (Pseudomonas putida (K); 30% preservative, 24 hour) | MBC test growth score (Pseudomonas putida (K); 30% preservative, 48 hour) | MBC test growth score (Pseudomonas putida (K); 30% preservative, 72 hour) | MBC test growth score (Pseudomonas putida (K); 40% preservative, 8 hour) | MBC test growth score (Pseudomonas putida (K); 40% preservative, 24 hour) | MBC test growth score (Pseudomonas putida (K); 40% preservative, 48 hour) | MBC test growth score (Pseudomonas putida (K); 40% preservative, 72 hour) | MBC test growth score (Pseudomonas putida (K); 50% preservative, 8 hour) | MBC test growth score (Pseudomonas putida (K); 50% preservative, 24 hour) | MBC test growth score (Pseudomonas putida (K); 50% preservative, 48 hour) | MBC test growth score (Pseudomonas putida (K); 50% preservative, 72 hour) | MBC test growth score (Pseudomonas putida (K); 60% preservative, 8 hour) | MBC test growth score (Pseudomonas putida (K); 60% preservative, 24 hour) | MBC test growth score (Pseudomonas putida (K); 60% preservative, 48 hour) | MBC test growth score (Pseudomonas putida (K); 60% preservative, 72 hour) | MBC test growth score (Pseudomonas putida (K); 70% preservative, 8 hour) | MBC test growth score (Pseudomonas putida (K); 70% preservative, 24 hour) | MBC test growth score (Pseudomonas putida (K); 70% preservative, 48 hour) | MBC test growth score (Pseudomonas putida (K); 70% preservative, 72 hour) | MBC test growth score (Pseudomonas putida (K); 80% preservative, 8 hour) | MBC test growth score (Pseudomonas putida (K); 80% preservative, 24 hour) | MBC test growth score (Pseudomonas putida (K); 80% preservative, 48 hour) | MBC test growth score (Pseudomonas putida (K); 80% preservative, 72 hour) | MBC test growth score (Pseudomonas putida (K); 90% preservative, 8 hour) | MBC test growth score (Pseudomonas putida (K); 90% preservative, 24 hour) | MBC test growth score (Pseudomonas putida (K); 90% preservative, 48 hour) | MBC test growth score (Pseudomonas putida (K); 90% preservative, 72 hour) | MBC test growth score (Pseudomonas putida (K); 100% preservative, 8 hour) | MBC test growth score (Pseudomonas putida (K); 100% preservative, 24 hour) | MBC test growth score (Pseudomonas putida (K); 100% preservative, 48 hour) | MBC test growth score (Pseudomonas putida (K); 100% preservative, 72 hour) | MBC test growth score ([1]; 50% preservative, 72 hour) | MBC test growth score ([1]; 60% preservative, 72 hour) | MBC test growth score ([1]; 70% preservative, 72 hour) | MBC test growth score ([1]; 80% preservative, 72 hour) | MBC test growth score ([1]; 90% preservative, 48 hour) | MBC test growth score ([1]; 90% preservative, 72 hour) | MBC test growth score ([1]; 100% preservative, 48 hour) | MBC test growth score ([1]; 100% preservative, 72 hour)
8: MBC test growth score ([1]; 10% preservative, 72 hour)
2: MBC test growth score ([1]; 30% preservative, 72 hour)
+: MBC test growth score ([1]; 10% preservative, 8 hour) | MBC test growth score ([1]; 10% preservative, 24 hour) | MBC test growth score ([1]; 20% preservative, 8 hour) | MBC test growth score ([1]; 20% preservative, 24 hour) | MBC test growth score ([1]; 30% preservative, 8 hour) | MBC test growth score ([1]; 40% preservative, 8 hour) | MBC test growth score ([1]; 50% preservative, 8 hour)
+/−: MBC test growth score ([1]; 10% preservative, 48 hour) | MBC test growth score ([1]; 20% preservative, 48 hour) | MBC test growth score ([1]; 30% preservative, 24 hour) | MBC test growth score ([1]; 30% preservative, 48 hour) | MBC test growth score ([1]; 40% preservative, 24 hour) | MBC test growth score ([1]; 40% preservative, 48 hour) | MBC test growth score ([1]; 50% preservative, 24 hour) | MBC test growth score ([1]; 50% preservative, 48 hour) | MBC test growth score ([1]; 60% preservative, 8 hour) | MBC test growth score ([1]; 60% preservative, 24 hour) | MBC test growth score ([1]; 60% preservative, 48 hour) | MBC test growth score ([1]; 70% preservative, 8 hour) | MBC test growth score ([1]; 70% preservative, 24 hour) | MBC test growth score ([1]; 70% preservative, 48 hour) | MBC test growth score ([1]; 80% preservative, 8 hour) | MBC test growth score ([1]; 80% preservative, 24 hour) | MBC test growth score ([1]; 80% preservative, 48 hour) | MBC test growth score ([1]; 90% preservative, 8 hour) | MBC test growth score ([1]; 90% preservative, 24 hour) | MBC test growth score ([1]; 100% preservative, 8 hour) | MBC test growth score ([1]; 100% preservative, 24 hour)
4: MBC test growth score ([1]; 20% preservative, 72 hour)
